Drawing on ChEMBL document CHEMBL1136403, “Synthesis and biological evaluation of some novel 4'-thio-L-ribonucleosides with modified nucleobase moieties” (Bioorg Med Chem Lett, 2003), this text covers IC50 for 4 molecules.

Test [1] deals with C6. Briefly: In vitro cytotoxicity against C6 rat glioma cell line. In kind it is functional, cell-based.
Test [2] relates to U-87 MG. Kind of test: In vitro cytotoxicity against HTB14 human glioma cell line. In kind it is functional, cell-based, U-87MG ATCC.
The test system of test [3] is HeLa. Kind of test: In vitro cytotoxicity against HeLa human cervical carcinoma cell line. In kind it is functional, cell-based.
In test [4] the test system is NHDF. Briefly: In vitro cytotoxicity against normal human dermal fibroblast (NHDF) cell line. It is filed as functional, cell-based.
Test [5] deals with NB-4. Briefly: In vitro cytotoxicity against NB4 leukemia cell line. It is filed as functional, cell-based. The following applies: Homo sapiens.
The test system of test [6] is T47D. Briefly: In vitro cytotoxicity against T47D breast cancer cell line. In kind it is functional, cell-based. The following applies: Homo sapiens.
Test [7] relates to T47D. Kind of test: Growth stimulating activity against T47D breast cancer cell line; growth stimulatory activity is observed. It is filed as functional, cell-based, Homo sapiens.
Test [8] has as its system NB-4. Kind of test: Growth stimulating activity against NB4 leukemia cell line; growth stimulatory activity is observed. It is filed as functional, cell-based, Homo sapiens.

Some results are limits rather than exact numbers.

What is called IC50 is the concentration at which inhibition is half-maximal. Read a low IC50 as greater potency in that assay. Take `Cc1cn([C@H]2S[C@@H](CO)[C@H](O)[C@@H]2O)c(=O)[nH]c1=O`: the IC50 was over 100 µM in test [1]; 67.8 µM in test [2]; 100 µM in test [3]; over 100 µM in test [4]; over 100 µM in test [5]; over 100 µM in test [6].
As for `Nc1nc(S)c2ncn([C@H]3S[C@@H](CO)[C@H](O)[C@@H]3O)c2n1`, the IC50 was over 100 µM in test [1]; 62.1 µM in test [2]; over 100 µM in test [3]; over 100 µM in test [4]; over 100 µM in test [5]; “Growth-stimulatory activity” in test [7].
In the case of `O=c1[nH]c(=O)n([C@H]2S[C@@H](CO)[C@H](O)[C@@H]2O)cc1F`, the IC50 in test [1] is over 100 µM; in test [2] it was 41.5 µM; in test [3], over 100 µM; in test [4] it was over 100 µM; in test [5], over 100 µM; in test [6], over 100 µM.
As for `Nc1nc(=O)n([C@H]2S[C@@H](CO)[C@H](O)[C@@H]2O)cc1F`, the IC50 in test [1] was over 100 µM; in test [2], 83.3 µM; in test [3], 95.9 µM; in test [4], over 100 µM; in test [8], “Growth-stimulatory activity”; in test [7], “Growth-stimulatory activity”.
